Measured values published in PMC4336573 (Chemistry & biology, 2015).

Target: T1, CBX7ChD (Homo sapiens, UniProt O95931)
T1 sequence (O95931 11-69 limits assumed): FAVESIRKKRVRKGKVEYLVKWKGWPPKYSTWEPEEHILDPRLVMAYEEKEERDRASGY
Format: binding

| IC50 | Structure (SMILES) |
| --- | --- |
| 5.5 µM | O=C(O)C1=CC(=C(c2ccc(O)c(C(=O)O)c2)c2ccc(O)c(C(=O)O)c2)C=CC1=O [Aurin tricarboxylic acid] |
| 3.9 µM | Cc1cc(-c2ccc(/N=N/c3ccc4c(S(=O)(=O)O)cc(S(=O)(=O)O)c(N)c4c3O)c(C)c2)ccc1/N=N/c1ccc2c(S(=O)(=O)O)cc(S(=O)(=O)O)c(N)c2c1O [Evans blue] |
| 33.3 µM | O=C(O)c1cc(O)c2c(c1)[C@H]([C@H]1c3cc(C(=O)O)cc(O)c3C(=O)c3c(O[C@@H]4O[C@H](CO)[C@@H](O)[C@H](O)[C@H]4O)cccc31)c1cccc(O[C@@H]3O[C@H](CO)[C@@H](O)[C@H](O)[C@H]3O)c1C2=O [Sennoside A] |
| 7.5 µM | Cc1cc(-c2ccc(/N=N/c3c(S(=O)(=O)O)cc4cc(S(=O)(=O)O)cc(N)c4c3O)c(C)c2)ccc1/N=N/c1c(S(=O)(=O)O)cc2cc(S(=O)(=O)O)cc(N)c2c1O [Trypan blue] |
